In brackets after ≈: the same amount, converted by molar mass.
Conditions: buffer; pH 7.4; 200.0 µM

SMILES	solubility kinetic [µg/mL]
O=S1(=O)CC(O)C(NCCO)C1 (configuration not stated)	> 29.3
Cc1nnc(Cn2cnc3c2c(=O)n(C)c(=O)n3C)o1	> 41.4
Cc1ccc2sc(N(CCN(C)C)C(=O)/C=C/c3cccs3)nc2c1C.Cl	< 0.3
CN(C)C(=O)c1cc([N+](=O)[O-])ccc1O	> 31.5
CCN(CC(=O)NCc1cccs1)C(=O)c1cccc(S(=O)(=O)N(C)C)c1	> 61.4
CCC(=O)c1ccc(OCC(=O)N2CCN(CC(=O)Nc3ccc(C)cc3)CC2)cc1	> 63.5
Cc1ccc(S(=O)(=O)NC(=O)Nc2cc(C)no2)cc1	> 44.3
COC(=O)[C@H](CC(C)C)NC(=O)NCCC1=CCCCC1	> 44.5
O=C(c1cc(-c2ccc3c(c2)OCO3)on1)N1CCCCC1	5.7 (≈ 19 µM)
COc1ccc(CNc2nc3ccc(C)cc3s2)c(OC)c1OC	15.1 (≈ 43.8 µM)
Cc1cc(NC(=O)c2ccc(Cl)c([N+](=O)[O-])c2)no1	0.8 (≈ 2.84 µM)
COc1cc(C)c(S(=O)(=O)N2CCOCC2)c(C)c1C	> 44.9
O=C(NCc1ccncc1)c1cc(F)c(F)cc1Cl	> 42.4
CCOC(=O)c1cnc2c(cnn2C)c1NCCCn1ccnc1	> 49.3
Cc1ccc(COc2ccc(C)nc2[N+](=O)[O-])cc1	1.2 (≈ 4.65 µM)
O=C1CCC([N+](=O)[O-])C(c2cc(Br)ccc2F)N1 (configuration not stated)	46.4 (≈ 146 µM)
OC(COc1ccc(Br)cc1)Cn1ccnc1 (configuration not stated)	36.3 (≈ 122 µM)
OC(CN1CCC(c2c[nH]c3ccccc23)CC1)C(F)(F)F (configuration not stated)	> 46.9
Cc1ccc(CNc2nc(C)c(C(=O)N(C)C)s2)cc1	> 43.4

The remaining lines, values ahead:

solubility kinetic [µg/mL]	SMILES
6.1 (≈ 19.3 µM)	Cc1cccc(N2CCN(Cc3ccc([N+](=O)[O-])o3)CC2)c1C
< 0.1	CC(C)c1cc(NCc2ccccn2)n2c(nc3ccccc32)c1C#N
9.4 (≈ 26.3 µM)	Cc1ccc(OCC(=O)O/N=C(\N)Cc2ccc([N+](=O)[O-])cc2)cc1C
35.3 (≈ 101 µM)	N=c1c2c(ncn1CCCO)Oc1cc(O)ccc1C2c1ccccc1 (configuration not stated)
41.7 (≈ 134 µM)	Cc1nc(-c2ccccn2)nc(N(C)c2ccccc2)c1Cl
< 0.6	Cc1cccc(OCc2cc(-c3ccccc3)no2)c1C
17.3 (≈ 62.4 µM)	Cc1cccc(C(=O)N=c2sccn2C)c1[N+](=O)[O-]
3.8 (≈ 10.2 µM)	O=C(Nc1nc(-c2cccs2)c(C(=O)C(F)(F)F)s1)c1ccco1
48.6 (≈ 128 µM)	Cc1csc(NC(=O)CSCC(=O)O)c1-c1nc2ccccc2s1
35 (≈ 131 µM)	COc1ccc(NCc2nc3ccccc3n2C)cc1
1.9 (≈ 7.03 µM)	O=C(OCc1ccc(Cl)c(Cl)c1)c1ccc[nH]1
> 37.7	Cc1ccc(CNc2nc3ccccc3n2C)cc1
> 57.5	O=C(NCCN1CCN(c2ccc([N+](=O)[O-])cc2)CC1)NCc1ccccc1
2.8 (≈ 8.11 µM)	O=C(Oc1ccc(C(=S)N2CCOCC2)cc1)c1ccc(F)cc1
< 0.8	COc1cc2c(cc1OC)C(c1ccccc1C(F)(F)F)CC(=O)N2 (configuration not stated)
29.7 (≈ 82.2 µM)	O=C(OCC(=O)N1CCCc2ccccc21)c1ccccc1OC(F)F
44.2	COc1ccc(OC)c(NC(=O)CCN2CCN(C)CC2)c1.Cl
2.6 (≈ 9.05 µM)	O=C(NC1CCCc2ccccc21)c1cc(F)cc(F)c1 (configuration not stated)
6.6 (≈ 17.4 µM)	Cc1c(C(=O)OCC(=O)Nc2ccc(C(=O)N(C)C)cc2)oc2ccccc12
> 44.6	O=C1CCCN1CC(O)CS(=O)(=O)Cc1ccccc1 (configuration not stated)
34 (≈ 111 µM)	N#Cc1ccc(C(=O)CN2CCN(c3ccccc3)CC2)cc1
45.2	CCN1CCN(CC(=O)Nc2ccc(C(C)=O)cc2)CC1.Cl
> 46.9	CCN(CC(=O)N1CCOCC1)S(=O)(=O)c1ccccc1
15.1 (≈ 45 µM)	CN(C)c1ccc(NC(=O)c2cccc([N+](=O)[O-])c2)c2ccccc12
34 (≈ 119 µM)	CCC(=O)Nc1cc(C(F)(F)F)ccc1N1CCCC1
23.2 (≈ 79.8 µM)	S=C(NCc1ccccc1)NCc1cccc(Cl)c1
7 (≈ 20.5 µM)	O=C(COC(=O)/C=C/c1cc(Br)ccc1F)NC1CC1
47.1 (≈ 134 µM)	Cc1ccc(CCNC(=O)C2CCC(=O)N2CCc2ccccc2)cc1 (configuration not stated)

— PubChem BioAssay AID1996
